Reference: patent US10294202B2, “Pyrrolidinones as herbicides” (FMC Corporation, priority 2013, dated 2019)

Experiments:
[1] = system: bluegrass; experiment: Test D pre-/postemergence herbicide test; format: in vivo, Poa annua; settings: Preemergence; for Plant response rating, Bluegrass: scale 0 to 100 (0 no effect, 100 complete control); for Plant response rating: 250 g ai/ha, Bluegrass, scale 0 to 100
Method in brief: (§1)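 Compound applied in non-phytotoxic solvent with surfactant, either preemergence (silt loam soil) or postemergence (peat moss/vermiculite medium, 2–18 cm plants). Evaluated visually after 7 to 21 days; 0 = no effect, 100 = complete control.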

[2] = system: wheat, spring; experiment: Test D pre-/postemergence herbicide test; format: in vivo, Triticum aestivum; settings: Preemergence, scale 0 to 100 (0 no effect, 100 complete control)
Method in brief: as §1

[3] = system: wheat, winter; experiment: Test D pre-/postemergence herbicide test; format: in vivo, Triticum aestivum; settings: Preemergence, scale 0 to 100 (0 no effect, 100 complete control)
Method in brief: as §1

[4] = system: blackgrass; experiment: Test D pre-/postemergence herbicide test; format: in vivo, Alopecurus myosuroides; settings: Preemergence; for Plant response rating, Blackgrass: scale 0 to 100 (0 no effect, 100 complete control); for Plant response rating: 250 g ai/ha, Blackgrass, scale 0 to 100
Method in brief: as §1

[5] = system: field bindweed; experiment: Test E preemergence herbicide test; format: in vivo, Convolvulus arvensis; design: key: 0 = no effect, 100 = complete control
Method in brief: (§2)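 Greenhouse preemergence test: seeds sown into silt loam received compound in a non-phytotoxic solvent mixture with surfactant. Plants grew 21 days before visual comparison with controls. Scores run from 0, no effect, to 100, complete control.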

[6] = system: barley, winter; experiment: Test D pre-/postemergence herbicide test; format: in vivo, Hordeum vulgare; settings: Preemergence; for Plant response rating, Barley, Winter: scale 0 to 100 (0 no effect, 100 complete control); for Plant response rating: 250 g ai/ha, Barley, Winter, scale 0 to 100
Method in brief: as §1

[7] = system: barley, spring; experiment: Test D pre-/postemergence herbicide test; format: in vivo, Hordeum vulgare; settings: Preemergence; for Plant response rating, Barley, Spring: scale 0 to 100 (0 no effect, 100 complete control); for Plant response rating: 250 g ai/ha, Barley, Spring, scale 0 to 100
Method in brief: as §1

[8] = system: pigweed; experiment: Test D pre-/postemergence herbicide test; format: in vivo, Amaranthus retroflexus; settings: Preemergence, scale 0 to 100 (0 no effect, 100 complete control)
Method in brief: as §1

[9] = system: foxtail, green; experiment: Test E preemergence herbicide test; format: in vivo, Setaria viridis; design: key: 0 = no effect, 100 = complete control
Method in brief: as §2

Compound	Plant response rating, Bluegrass ([1]; 62 g ai/ha)	Plant response rating, Bluegrass ([1]; 125 g ai/ha)	Plant response rating, Bluegrass ([1]; 31 g ai/ha)	Plant response rating [1]	Plant response rating, Wheat, Spring ([2]; 62 g ai/ha)	Plant response rating, Wheat, Spring ([2]; 125 g ai/ha)	Plant response rating, Wheat, Spring ([2]; 31 g ai/ha)	Plant response rating, Wheat, Spring ([2]; 250 g ai/ha)	Plant response rating, Wheat, Winter ([3]; 62 g ai/ha)	Plant response rating, Wheat, Winter ([3]; 125 g ai/ha)	Plant response rating, Wheat, Winter ([3]; 31 g ai/ha)	Plant response rating, Wheat, Winter ([3]; 250 g ai/ha)	Plant response rating, Blackgrass ([4]; 62 g ai/ha)	Plant response rating, Blackgrass ([4]; 125 g ai/ha)	Plant response rating, Blackgrass ([4]; 31 g ai/ha)	Plant response rating [4]	Plant response rating, Field Bindweed ([5]; 31 g ai/ha)	Plant response rating, Field Bindweed ([5]; 62 g ai/ha)	Plant response rating, Field Bindweed ([5]; 125 g ai/ha)	Plant response rating, Field Bindweed ([5]; 250 g ai/ha)	other results
O=C1NC[C@H](c2cccc(C(F)(F)F)c2)[C@H]1C(=O)Nc1ccccc1F [Compound 204, (3R,4S)—N-(2-fluorophenyl)-2-oxo-4-[3-(trifluoromethyl)phenyl]-3-pyrrolidinecarboxamide]	0	15	0	35	0	25	0	30	15	15	5	20	10	40	5	65	0	0	0	30	Plant response rating, Barley, Winter ([6]; 62 g ai/ha): 20; Plant response rating, Barley, Winter ([6]; 125 g ai/ha): 25; Plant response rating, Barley, Winter ([6]; 31 g ai/ha): 0; Plant response rating [6]: 35; Plant response rating, Barley, Spring ([7]; 62 g ai/ha): 15; Plant response rating, Barley, Spring ([7]; 125 g ai/ha): 20; Plant response rating, Barley, Spring ([7]; 31 g ai/ha): 0; Plant response rating [7]: 45; Plant response rating, Pigweed ([8]; 62 g ai/ha): 5; Plant response rating, Pigweed ([8]; 125 g ai/ha): 35; Plant response rating, Pigweed ([8]; 31 g ai/ha): 0; Plant response rating, Pigweed ([8]; 250 g ai/ha): 35; Plant response rating, Foxtail, Green ([9]; 31 g ai/ha): 40; Plant response rating, Foxtail, Green ([9]; 62 g ai/ha): 98; Plant response rating, Foxtail, Green ([9]; 125 g ai/ha): 95; Plant response rating, Foxtail, Green ([9]; 250 g ai/ha): 98
O=C1NC[C@H](c2cccc(C(F)(F)F)c2)[C@H]1C(=O)Nc1cccc(F)c1F [Compound 206]	30	35	0	70	25	45	10	65	0	25	0	30	70	85	30	90	20	20	30	50	Plant response rating, Barley, Winter ([6]; 62 g ai/ha): 30; Plant response rating, Barley, Winter ([6]; 125 g ai/ha): 40; Plant response rating, Barley, Winter ([6]; 31 g ai/ha): 15; Plant response rating [6]: 65; Plant response rating, Barley, Spring ([7]; 62 g ai/ha): 35; Plant response rating, Barley, Spring ([7]; 125 g ai/ha): 40; Plant response rating, Barley, Spring ([7]; 31 g ai/ha): 5; Plant response rating [7]: 55; Plant response rating, Pigweed ([8]; 62 g ai/ha): 20; Plant response rating, Pigweed ([8]; 125 g ai/ha): 40; Plant response rating, Pigweed ([8]; 31 g ai/ha): 5; Plant response rating, Pigweed ([8]; 250 g ai/ha): 50; Plant response rating, Foxtail, Green ([9]; 31 g ai/ha): 80; Plant response rating, Foxtail, Green ([9]; 62 g ai/ha): 98; Plant response rating, Foxtail, Green ([9]; 125 g ai/ha): 98; Plant response rating, Foxtail, Green ([9]; 250 g ai/ha): 98
